From PMC6158189, “A pharmacological probe identifies cystathionine β-synthase as a new negative regulator for ferroptosis” (Cell Death & Disease, 2018)

Legend:
[1] = biological target: T1, hCBS Q222A (Homo sapiens, UniProt P35520, Q222A); experiment: purified hCBS mutant enzyme assay; type: biochemical; conditions: 1 mM HA, 60 mM Cys, 1.2 μM CBS-413 Q222A
T1 construct: hCBS-413 (a C-terminal truncated hCBS 1–413); GST (N); made in house; host or cells: E. coli BL21
T1 sequence (P35520 1-413 Q222A): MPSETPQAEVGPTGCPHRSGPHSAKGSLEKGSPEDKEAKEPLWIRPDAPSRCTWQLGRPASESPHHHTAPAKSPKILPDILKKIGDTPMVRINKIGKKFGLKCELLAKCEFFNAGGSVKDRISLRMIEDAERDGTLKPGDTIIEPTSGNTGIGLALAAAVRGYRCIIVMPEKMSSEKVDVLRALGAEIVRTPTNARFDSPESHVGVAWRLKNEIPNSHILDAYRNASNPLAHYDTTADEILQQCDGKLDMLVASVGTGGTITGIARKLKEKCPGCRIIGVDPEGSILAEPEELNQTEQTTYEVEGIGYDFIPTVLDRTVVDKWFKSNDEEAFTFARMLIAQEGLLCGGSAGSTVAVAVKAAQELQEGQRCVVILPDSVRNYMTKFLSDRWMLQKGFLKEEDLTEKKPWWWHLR
Protocol: The IC50 values of CH004 for hCBS-413, hCBS-413 mutants, hCBS-FL, hCSE or hDDC were determined according to the standard assay conditions otherwise indicated.
Figure S6. […] HEK293T cells stably expressing CBS Q222A mutant (293T-CBS Q222A) were treated with 0 (DMSO control), 5 or 10 μM CH004 for 8 h before staining with the AzMC to detect H2S. The overlaid images of fluorescent and bright-field images are shown in the left panel, and the corresponding fluorescent (blue, H2S) and bright-field images are shown in the middle and right panels, respectively. Bars: 50 μm. [picture] Figure S7. The CH004-insensitive CBS Q222A mutant can be inhibited by HA. (A) HEK293T cells stably expressing CBS Q222A mutant (293T-CBS Q222A) were treated with 0 (DMSO, control), 5 or 10 μM of CH004, 1 mM or 2 mM of HA for 8 h before staining with the AzMC to detect H2S. The overlaid images of fluorescent and bright-field images are shown in the upper panel, and the corresponding fluorescent (blue, H2S) and bright-field images are shown in the middle and lower panels, respectively. Bars: 50 μm. (B) Quantification of the mean fluorescent density of H2S (blue). The intensity of blue light of the fluorescent images was quantified by ImageJ software, quantified and deduced the background signal in HEK293T-EV cells (Supplementary Figure S3B), normalized by the corresponding cell area and expressed as percentages of control (DMSO group, 100%). Means ± SDs (n=3). One-way ANOVA with Bonferroni post-tests was used for the analysis. *, p< 0.05; **, p< 0.01; n.s. no significance. The images are one representative from three independent experiments. (C) The inhibitory effect of 1 mM HA on purified CBS Q222A mutant. The assay was performed using 60 mM Cys and 1.2 μM CBS-413 Q222A mutant. The data were expressed as percentages of control (DMSO, 100%). Means ± SDs (n=4). [picture]
Table S2. Inhibitory effects of CH004 on hCBS WT and mutants.

[2] = biological target: T2, CBS-FL mutant (293T-CBS Q222A) (Homo sapiens, UniProt P35520, Q222A); experiment: H2S in HEK293T cells stably expressing CBS Q222A (AzMC probe); type: cell-based; conditions: 1 mM or 2 mM HA, 8 h
T2 construct: human CBS or hCSE full-length (CBS-FL or CSE) was subcloned into pGEX-KG, pcDNA3 or pCDH vector; expressed in transfected cells
Protocol: HEK293T cells were transiently transfected with empty vector (EV, i and ii), hCBS-FL (iii and iv) or hCSE (v and vi) plasmids, followed by incubation with DMSO (i–iii and v) or 10 μM CH004 (iv and vi) for 8 h before staining with 50 μM AzMC, a H2S-specific probe (“Materials and Methods” section). For larger fluorescent and bright-field images, please see Supplementary Figure 4. The expression levels of hCBS or hCSE in HEK293T cells after transient transfections were determined by western blotting using an anti-CBS antibody (3E1, 1:2000; Abnova) or anti-CSE antibody (1:500, GeneTex). The densities of protein bands for hCBS or hCSE in the blots were quantified with the ImageJ software (National Institutes of Health, Bethesda, MD, USA) and expressed as ratios of respective control (EV group). […] The fluorescent images of the H2S (blue) were accordingly quantified (“Materials and Methods” section) with ImageJ. […] A representative fluorescence image from three independent experiments is shown. […]
H2S levels in living cells were detected using a H2S-specific fluorescent probe according to a protocol described previously[31],[55]. […] After incubation with 50 μM AzMC at 37 °C for 30 min, the cells were washed 4 times with PBS, and the fluorescent images were recorded with excitation by 405 nm laser by using a A1Si (Nikon) confocal microscope. […]

Compound: NO [HA, hydroxylamine, reference compound]
- inhibitory effect on activity of purified CBS Q222A mutant [1]: could be suppressed
- effect on H2S [2]: substantially decreased
